Source: US20250152496A1, “SKIN IMPROVING AGENT CONTAINING FERMENTED EXTRACT AS MAIN RAW MATERIAL” (priority 2022, published 2025)

Tests used:
[1] = system: elastase derived from human skin fibroblasts (NHDF-Ad); test: elastase activity inhibition test (anti-wrinkle test); format: biochemical; conditions: 50 nM; 37° C. for 2 hours
Protocol: Therefore, in this example, elastase activity was evaluated by measuring an amount of nitroaniline produced using elastase derived from human skin fibroblasts (NHDF-Ad), and using N-Succinyl-Ala-Ala-Ala-β-nitroanilide as a substrate. Based on the elastase activity, a skin dermis elasticity retention and aging function (an activity inhibition rate) of the test object of rice malt lactic acid bacterium fermentation liquid SW01 (hereinafter, SW01) was examined.
The elastase activity was set to 100% using, as a control, a reaction with only elastase derived from human skin fibroblasts (NHDF-Ad) and N-Succinyl-Ala-Ala-Ala-β-nitroanilide as a substrate. Reaction conditions in this experiment were 37° C. for 2 hours.

[2] = system: rat basophilic leukemia cell RBL-2H3; test: degranulation inhibition: β-hexosaminidase activity of antigen-stimulated RBL-2H3 cells; format: cell-based; conditions: 50 µg/mL, positive control
Protocol: To determine an extent to which the test object inhibits degranulation, degranulation is assessed by measuring the activity of β-hexosaminidase, which is abundantly present in the granulocyte. Accordingly, the effect of the test object on allergic reaction is evaluated. It is known that rat basophilic leukemia cell RBL-2H3 releases the granulocyte containing histamine and the like to the outside of the cell when IgE bound to the cell surface is cross-linked with an antigen. This has been applied as an experimental system to exploratory research and the like as screening for substances having an anti-allergic action against type I allergy. In this example, the inhibition of degranulation is evaluated by stimulating RBL-2H3 cells with an antigen and measuring the activity of β-hexosaminidase (FIG. 4). […] Further, […] of quercetin was used as a positive control. […] By adding […] of the rice malt lactic acid bacterium fermentation liquid SW01, the activity of β-hexosaminidase was about 50%. […] Note that, the p value in FIG. 4 is p<0.01.

Structure (SMILES) | elastase inhibition by standard agent [1] | activity of β-hexosaminidase (control with sterilized water = 100%) [2]
CC(C)C[C@H](NP(=O)(O)O[C@@H]1O[C@@H](C)[C@H](O)[C@@H](O)[C@H]1O)C(=O)N[C@@H](Cc1c[nH]c2ccccc12)C(=O)O [phosphoramidon] | show elastase inhibition | 
O=c1c(O)c(-c2ccc(O)c(O)c2)oc2cc(O)cc(O)c12 [quercetin] |  | about 40%
